Assay results from patent US11208405B2, “Pyrrole derivatives as PLK1 inhibitors” (SENTINEL ONCOLOGY LIMITED, priority 2017, dated 2021).
pIC50: −log10 of the molar value. Structures can show the parent of a compound that is named as a salt.

Experiments:
NEK6 = target: T1, NEK6 (Homo sapiens, UniProt Q9HC98); assay: Kinase selectivity assay (DiscoverX KinomeScreen), NEK6; type: binding; conditions: NEK6, 5 μM; read-out: % Control
T1 construct: purchased DiscoverX
Experimental: (§1) The compound of Example 33 was tested for off-target activity against a panel of fifty five kinases bearing functional or structural similarity to PLK1 at a concentration of 5 μM using the DiscoverX KinomeScreen assay.

NEK5 = target: T2, NEK5 (Homo sapiens, UniProt Q6P3R8); assay: Kinase selectivity assay (DiscoverX KinomeScreen), NEK5; type: binding; conditions: NEK5, 5 μM; read-out: % Control
T2 construct: purchased DiscoverX
Experimental: as §1

[1] = system: glioblastoma cell line 1240170; assay: Glioblastoma cancer cell viability, cell line 1240170; type: cell-based
Experimental: (§2) Assay to Measure the Effects of Compounds of the Invention on Glioblastoma Cancer Cell Viability
(§3) The compound of Example 33 was tested for inhibitory activity against the glioblastoma cell lines in Table 7 below.

BUB1 = target: T3, BUB1 (Homo sapiens, UniProt O43683); assay: Kinase selectivity assay (DiscoverX KinomeScreen), BUB1; type: binding; conditions: BUB1, 5 μM; read-out: % Control
T3 construct: purchased DiscoverX
Experimental: as §1

[2] = Stability in human hepatocytes; type: in vitro ADME
CSNK2A2 = target: T4, CSNK2A2 (Homo sapiens, UniProt P19784); assay: Kinase selectivity assay (DiscoverX KinomeScreen), CSNK2A2; type: binding; conditions: CSNK2A2, 5 μM; read-out: % Control
T4 construct: purchased DiscoverX
Experimental: as §1

CAMKK2 = target: T5, CAMKK2 (Homo sapiens, UniProt Q96RR4); assay: Kinase selectivity assay (DiscoverX KinomeScreen), CAMKK2; type: binding; conditions: CAMKK2, 5 μM; read-out: % Control
T5 construct: purchased DiscoverX
T5 sequence (Q96RR4 whole entry): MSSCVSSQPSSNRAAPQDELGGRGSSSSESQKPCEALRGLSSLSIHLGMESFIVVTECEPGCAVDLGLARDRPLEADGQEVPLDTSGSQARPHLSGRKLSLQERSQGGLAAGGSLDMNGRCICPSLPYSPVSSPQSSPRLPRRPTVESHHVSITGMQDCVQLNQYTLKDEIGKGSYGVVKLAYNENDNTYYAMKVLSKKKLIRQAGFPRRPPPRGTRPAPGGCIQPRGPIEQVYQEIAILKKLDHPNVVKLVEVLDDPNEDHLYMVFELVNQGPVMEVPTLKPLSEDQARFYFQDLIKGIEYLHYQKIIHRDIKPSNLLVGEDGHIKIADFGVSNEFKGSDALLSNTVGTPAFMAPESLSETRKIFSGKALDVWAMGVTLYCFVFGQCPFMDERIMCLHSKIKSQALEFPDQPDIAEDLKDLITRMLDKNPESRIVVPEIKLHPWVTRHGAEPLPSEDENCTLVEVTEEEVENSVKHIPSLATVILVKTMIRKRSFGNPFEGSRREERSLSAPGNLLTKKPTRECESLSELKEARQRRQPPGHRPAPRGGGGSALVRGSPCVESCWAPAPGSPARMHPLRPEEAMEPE
Experimental: as §1

WEE2 = target: T6, WEE2 (Homo sapiens, UniProt P0C1S8); assay: Kinase selectivity assay (DiscoverX KinomeScreen), WEE2; type: binding; conditions: WEE2, 5 μM; read-out: % Control
T6 construct: purchased DiscoverX
Experimental: as §1

[3] = system: glioblastoma cell line 907313; assay: Glioblastoma cancer cell viability, cell line 907313; type: cell-based
Experimental: as §2, §3

[4] = system: HCT116 cells (a mutant KRAS G-13D expressing cell line); assay: Drug resistance studies in HCT116 cells; type: cell-based; conditions: five times the half maximal growth inhibiting amount, twenty two days
ULK1 = target: T7, ULK1 (Homo sapiens, UniProt O75385); assay: Kinase selectivity assay (DiscoverX KinomeScreen), ULK1; type: binding; conditions: ULK1, 5 μM; read-out: % Control
T7 construct: purchased DiscoverX
Experimental: as §1

ERN1 = target: T8, ERN1 (Homo sapiens, UniProt O75460); assay: Kinase selectivity assay (DiscoverX KinomeScreen), ERN1; type: binding; conditions: ERN1, 5 μM; read-out: % Control
T8 construct: purchased DiscoverX
Experimental: as §1

STK35 = target: T9, STK35 (Homo sapiens, UniProt Q8TDR2); assay: Kinase selectivity assay (DiscoverX KinomeScreen), STK35; type: binding; conditions: STK35, 5 μM; read-out: % Control
T9 construct: purchased DiscoverX
Experimental: as §1

[5] = system: glioblastoma cell line 909750; assay: Glioblastoma cancer cell viability, cell line 909750; type: cell-based
Experimental: as §2, §3

[6] = system: glioblastoma cell line 906746; assay: Glioblastoma cancer cell viability, cell line 906746; type: cell-based
Experimental: as §2, §3

phospho-histone H3 = assay: Western blotting of tumours 24 hours after a single dose; type: in vivo; conditions: mice with established tumours
Experimental: In a separate experiment, eight mice with established tumours were treated with the compound of Example 33 and euthanised 24 hours after administration of a single dose.

PLK1 = target: T10, PLK1 (Homo sapiens, UniProt P53350); assay: Kinase selectivity assay (DiscoverX KinomeScreen), PLK1; type: binding; conditions: PLK1, 5 μM; read-out: % Control
T10 construct: purchased DiscoverX
T10 sequence (P53350 whole entry): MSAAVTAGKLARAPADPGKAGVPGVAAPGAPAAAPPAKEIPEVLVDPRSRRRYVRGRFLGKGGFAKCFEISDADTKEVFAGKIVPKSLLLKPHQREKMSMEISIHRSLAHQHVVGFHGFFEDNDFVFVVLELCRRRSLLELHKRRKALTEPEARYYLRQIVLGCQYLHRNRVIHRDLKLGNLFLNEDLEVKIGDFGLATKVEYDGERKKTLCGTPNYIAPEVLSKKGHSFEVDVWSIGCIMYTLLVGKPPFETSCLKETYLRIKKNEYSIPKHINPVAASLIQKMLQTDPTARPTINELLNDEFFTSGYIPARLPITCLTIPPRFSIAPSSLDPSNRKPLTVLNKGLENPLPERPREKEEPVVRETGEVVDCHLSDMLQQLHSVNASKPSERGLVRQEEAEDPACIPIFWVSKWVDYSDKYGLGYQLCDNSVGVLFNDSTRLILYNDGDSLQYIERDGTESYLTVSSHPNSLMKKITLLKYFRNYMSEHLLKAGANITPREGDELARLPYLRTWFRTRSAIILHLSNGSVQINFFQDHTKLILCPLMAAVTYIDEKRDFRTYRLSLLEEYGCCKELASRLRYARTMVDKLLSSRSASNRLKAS
Experimental: as §1

WNK2 = target: T11, WNK2 (Homo sapiens, UniProt Q9Y3S1); assay: Kinase selectivity assay (DiscoverX KinomeScreen), WNK2; type: binding; conditions: WNK2, 5 μM; read-out: % Control
T11 construct: purchased DiscoverX
T11 sequence (Q9Y3S1 whole entry): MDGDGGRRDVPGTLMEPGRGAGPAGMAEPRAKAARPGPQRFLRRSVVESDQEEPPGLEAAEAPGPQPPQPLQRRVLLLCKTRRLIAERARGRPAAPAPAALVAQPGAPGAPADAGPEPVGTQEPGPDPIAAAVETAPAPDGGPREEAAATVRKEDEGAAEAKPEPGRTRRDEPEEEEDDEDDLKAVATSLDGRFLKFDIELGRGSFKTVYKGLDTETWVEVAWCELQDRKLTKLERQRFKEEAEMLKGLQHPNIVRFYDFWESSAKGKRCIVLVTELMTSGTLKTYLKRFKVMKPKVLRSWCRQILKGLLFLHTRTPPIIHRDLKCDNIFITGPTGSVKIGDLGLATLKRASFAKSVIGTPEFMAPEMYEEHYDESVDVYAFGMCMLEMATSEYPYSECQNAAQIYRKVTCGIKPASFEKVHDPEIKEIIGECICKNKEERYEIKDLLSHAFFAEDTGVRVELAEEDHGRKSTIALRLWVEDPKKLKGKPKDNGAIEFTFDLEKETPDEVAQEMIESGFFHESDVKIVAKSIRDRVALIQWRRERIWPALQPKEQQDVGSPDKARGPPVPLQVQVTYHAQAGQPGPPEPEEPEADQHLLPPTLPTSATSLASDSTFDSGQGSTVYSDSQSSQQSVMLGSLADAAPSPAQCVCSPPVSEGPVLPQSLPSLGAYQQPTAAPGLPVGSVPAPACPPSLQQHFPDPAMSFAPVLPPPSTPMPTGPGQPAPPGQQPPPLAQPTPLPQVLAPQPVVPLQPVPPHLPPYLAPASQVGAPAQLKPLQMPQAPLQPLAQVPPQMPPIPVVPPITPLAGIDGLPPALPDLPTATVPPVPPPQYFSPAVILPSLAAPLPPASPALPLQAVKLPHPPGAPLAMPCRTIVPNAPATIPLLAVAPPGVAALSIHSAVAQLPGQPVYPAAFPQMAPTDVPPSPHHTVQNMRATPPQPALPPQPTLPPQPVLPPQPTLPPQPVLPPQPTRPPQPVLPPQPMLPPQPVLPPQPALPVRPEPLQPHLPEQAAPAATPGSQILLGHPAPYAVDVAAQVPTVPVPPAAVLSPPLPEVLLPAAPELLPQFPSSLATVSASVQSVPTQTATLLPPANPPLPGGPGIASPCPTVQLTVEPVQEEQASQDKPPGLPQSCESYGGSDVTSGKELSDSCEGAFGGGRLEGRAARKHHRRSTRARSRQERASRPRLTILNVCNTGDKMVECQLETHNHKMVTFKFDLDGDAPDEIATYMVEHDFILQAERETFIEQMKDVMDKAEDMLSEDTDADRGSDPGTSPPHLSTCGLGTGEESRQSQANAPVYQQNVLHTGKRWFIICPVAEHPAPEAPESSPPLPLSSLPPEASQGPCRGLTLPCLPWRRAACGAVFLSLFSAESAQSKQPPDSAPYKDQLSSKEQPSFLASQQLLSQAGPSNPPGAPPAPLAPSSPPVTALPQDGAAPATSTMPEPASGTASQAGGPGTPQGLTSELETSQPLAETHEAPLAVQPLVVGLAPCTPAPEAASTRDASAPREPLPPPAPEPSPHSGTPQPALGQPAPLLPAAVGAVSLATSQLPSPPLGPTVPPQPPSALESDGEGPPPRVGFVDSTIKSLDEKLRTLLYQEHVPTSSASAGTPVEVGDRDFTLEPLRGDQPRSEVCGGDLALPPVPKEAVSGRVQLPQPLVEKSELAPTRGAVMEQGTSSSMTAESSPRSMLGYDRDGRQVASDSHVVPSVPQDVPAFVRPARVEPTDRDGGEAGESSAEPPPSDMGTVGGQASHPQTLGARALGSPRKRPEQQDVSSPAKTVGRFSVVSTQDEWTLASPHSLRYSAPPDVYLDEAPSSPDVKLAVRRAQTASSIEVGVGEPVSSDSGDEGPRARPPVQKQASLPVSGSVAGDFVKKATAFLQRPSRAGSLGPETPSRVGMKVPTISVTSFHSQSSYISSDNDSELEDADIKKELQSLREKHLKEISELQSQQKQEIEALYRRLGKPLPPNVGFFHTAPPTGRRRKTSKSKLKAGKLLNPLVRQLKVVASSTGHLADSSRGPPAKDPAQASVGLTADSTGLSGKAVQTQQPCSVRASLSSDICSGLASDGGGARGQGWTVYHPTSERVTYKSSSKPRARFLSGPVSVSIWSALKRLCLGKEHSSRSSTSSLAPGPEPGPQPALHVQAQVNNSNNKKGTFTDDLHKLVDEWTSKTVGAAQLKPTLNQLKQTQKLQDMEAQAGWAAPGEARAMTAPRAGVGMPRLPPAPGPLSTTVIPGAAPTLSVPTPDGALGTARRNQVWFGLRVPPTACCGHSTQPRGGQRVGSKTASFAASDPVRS
Experimental: as §1

AURKB = target: T12, AURKB (Homo sapiens, UniProt Q96GD4); assay: Kinase selectivity assay (DiscoverX KinomeScreen), AURKB; type: binding; conditions: read-out: % Control
T12 construct: purchased DiscoverX
Experimental: as §1

PLK3 = target: T13, PLK3 (Homo sapiens, UniProt Q9H4B4); assay: Kinase selectivity assay (DiscoverX KinomeScreen), PLK3; type: binding; conditions: PLK3, 5 μM; read-out: % Control
T13 construct: purchased DiscoverX
Experimental: as §1

[7] = system: glioblastoma cell line 909745; assay: Glioblastoma cancer cell viability, cell line 909745; type: cell-based
Experimental: as §2, §3

cytochrome P450 2C9 = cytochrome P450 2C9 (Homo sapiens, UniProt P11712); assay: Cytochrome P450 inhibition, 2C9; type: in vitro ADME
Sequence of cytochrome P450 2C9 (P11712 whole entry): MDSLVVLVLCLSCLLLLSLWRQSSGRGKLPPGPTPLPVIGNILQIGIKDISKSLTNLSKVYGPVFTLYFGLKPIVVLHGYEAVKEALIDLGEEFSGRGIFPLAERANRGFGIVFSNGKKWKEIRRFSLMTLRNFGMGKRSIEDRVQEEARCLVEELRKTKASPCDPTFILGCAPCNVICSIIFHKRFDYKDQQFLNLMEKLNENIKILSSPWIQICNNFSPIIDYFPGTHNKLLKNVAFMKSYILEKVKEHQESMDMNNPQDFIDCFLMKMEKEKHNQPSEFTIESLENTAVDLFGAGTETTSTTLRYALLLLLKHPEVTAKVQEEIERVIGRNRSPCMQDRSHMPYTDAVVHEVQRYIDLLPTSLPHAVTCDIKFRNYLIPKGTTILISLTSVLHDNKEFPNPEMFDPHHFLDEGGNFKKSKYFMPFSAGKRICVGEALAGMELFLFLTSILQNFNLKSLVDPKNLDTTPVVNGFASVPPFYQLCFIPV

cytochrome P450 2C19 = cytochrome P450 2C19 (Homo sapiens, UniProt P33261); assay: Cytochrome P450 inhibition, 2C19; type: in vitro ADME
hERG ion channel = hERG ion channel (Homo sapiens, UniProt Q12809); assay: Binding to the hERG ion channel
SBK1 = target: T14, SBK1 (Homo sapiens, UniProt Q52WX2); assay: Kinase selectivity assay (DiscoverX KinomeScreen), SBK1; type: binding; conditions: SBK1, 5 μM; read-out: % Control
T14 construct: purchased DiscoverX
T14 sequence (Q52WX2 whole entry): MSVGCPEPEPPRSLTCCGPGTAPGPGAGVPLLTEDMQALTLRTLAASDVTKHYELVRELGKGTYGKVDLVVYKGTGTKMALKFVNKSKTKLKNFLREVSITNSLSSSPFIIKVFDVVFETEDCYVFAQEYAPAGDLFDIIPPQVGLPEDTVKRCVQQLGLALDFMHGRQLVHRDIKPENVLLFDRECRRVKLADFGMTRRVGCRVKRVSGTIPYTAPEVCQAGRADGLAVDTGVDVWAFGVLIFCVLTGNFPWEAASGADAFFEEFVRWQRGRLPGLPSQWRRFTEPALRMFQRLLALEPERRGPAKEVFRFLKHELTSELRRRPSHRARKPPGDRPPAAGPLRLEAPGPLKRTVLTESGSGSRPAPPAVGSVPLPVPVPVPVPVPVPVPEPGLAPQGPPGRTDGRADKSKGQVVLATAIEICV
Experimental: as §1

EIF2AK4 = assay: Kinase selectivity assay (DiscoverX KinomeScreen), EIF2AK4; type: binding; conditions: EIF2AK4, 5 μM
Experimental: as §1

NEK7 = target: T15, NEK7 (Homo sapiens, UniProt Q8TDX7); assay: Kinase selectivity assay (DiscoverX KinomeScreen), NEK7; type: binding; conditions: NEK7, 5 μM; read-out: % Control
T15 construct: purchased DiscoverX
T15 sequence (Q8TDX7 whole entry): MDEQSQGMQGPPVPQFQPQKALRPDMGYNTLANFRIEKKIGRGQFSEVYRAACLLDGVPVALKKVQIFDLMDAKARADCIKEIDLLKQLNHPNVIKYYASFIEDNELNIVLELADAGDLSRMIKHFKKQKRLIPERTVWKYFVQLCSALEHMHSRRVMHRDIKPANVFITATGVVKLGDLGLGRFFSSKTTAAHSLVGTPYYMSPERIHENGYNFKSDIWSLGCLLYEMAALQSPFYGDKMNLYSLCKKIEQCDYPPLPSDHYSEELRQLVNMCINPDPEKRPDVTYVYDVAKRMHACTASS
Experimental: as §1

AAK1 = target: T16, AAK1 (Homo sapiens, UniProt Q2M2I8); assay: Kinase selectivity assay (DiscoverX KinomeScreen), AAK1; type: binding; conditions: AAK1, 5 μM; read-out: % Control
T16 construct: purchased DiscoverX
Experimental: as §1

[8] = system: glioblastoma cell line 907279; assay: Glioblastoma cancer cell viability, cell line 907279; type: cell-based
Experimental: as §2, §3

SgK110 = target: T17, SgK110 (Homo sapiens, UniProt P0C264); assay: Kinase selectivity assay (DiscoverX KinomeScreen), SgK110; type: binding; conditions: SgK110, 5 μM; read-out: % Control
T17 construct: purchased DiscoverX
T17 sequence (P0C264 whole entry): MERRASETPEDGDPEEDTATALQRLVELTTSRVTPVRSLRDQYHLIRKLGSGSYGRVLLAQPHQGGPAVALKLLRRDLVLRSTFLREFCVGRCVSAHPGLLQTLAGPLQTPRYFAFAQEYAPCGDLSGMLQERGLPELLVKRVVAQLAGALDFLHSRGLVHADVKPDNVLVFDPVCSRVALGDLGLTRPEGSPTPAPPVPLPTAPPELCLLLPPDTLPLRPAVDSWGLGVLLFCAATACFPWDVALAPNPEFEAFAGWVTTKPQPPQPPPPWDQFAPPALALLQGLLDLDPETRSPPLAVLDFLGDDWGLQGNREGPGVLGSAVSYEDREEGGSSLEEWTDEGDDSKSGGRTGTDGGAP
Experimental: as §1

EIF2AK2 = target: T18, EIF2AK2 (Homo sapiens, UniProt P19525); assay: Kinase selectivity assay (DiscoverX KinomeScreen), EIF2AK2; type: binding; conditions: EIF2AK2, 5 μM; read-out: % Control
T18 construct: purchased DiscoverX
Experimental: as §1

PLK4 = target: T19, PLK4 (Homo sapiens, UniProt O00444); assay: Kinase selectivity assay (DiscoverX KinomeScreen), PLK4; type: binding; conditions: PLK4, 5 μM; read-out: % Control
T19 construct: purchased DiscoverX
Experimental: as §1

WNK1 = target: T20, WNK1 (Homo sapiens, UniProt Q9H4A3); assay: Kinase selectivity assay (DiscoverX KinomeScreen), WNK1; type: binding; conditions: WNK1, 5 μM; read-out: % Control
T20 construct: purchased DiscoverX
Experimental: as §1

## CN(C)CCNC(=O)c1ccc(-c2ccc(-c3ccc(Cl)cc3)n2-c2ccccc2C(F)(F)F)cc1 [Example 33, 4-[5-(4-chlorophenyl)-1-[2-(trifluoromethyl)phenyl]pyrrol-2-yl]-N-[2-(dimethylamino)ethyl]benzamide Hydrochloride]
NEK6
  remaining activity at 5 µM: 99%
NEK5
  remaining activity at 5 µM: 99%
[1]
  pIC50: 6.44
BUB1
  remaining activity at 5 µM: 90%
[2]
  hepatocyte CLint: 10 µL/min/1e6 cells
CSNK2A2
  remaining activity at 5 µM: 92%
CAMKK2
  remaining activity at 5 µM: 97%
WEE2
  remaining activity at 5 µM: 92%
[3]
  pIC50: 5.96
[4]
  formation of drug-resistant colonies: not
ULK1
  remaining activity at 5 µM: 84%
ERN1
  remaining activity at 5 µM: 74%
STK35
  remaining activity at 5 µM: 71%
[5]
  pIC50: 6.03
[6]
  pIC50: 6.37
phospho-histone H3
  phospho-histone H3 in tumours (Western blotting): clear induction of phospho-histone H3
PLK1
  remaining activity at 5 µM: 100%
WNK2
  remaining activity at 5 µM: 100%
AURKB
  remaining activity at 5 µM: 95%
PLK3
  remaining activity at 5 µM: 74%
[7]
  pIC50: 5.86
Cytochrome P450 2C9
  cytochrome P450 inhibition 2C9: > 10 µM
Cytochrome P450 2C19
  cytochrome P450 inhibition 2C19: > 10 µM
hERG ion channel
  binding to the hERG ion channel: > 25 µM
SBK1
  remaining activity at 5 µM: 61%
EIF2AK4
  % Control: 97%
NEK7
  remaining activity at 5 µM: 79%
AAK1
  remaining activity at 5 µM: 100%
[8]
  pIC50: 4.56
SgK110
  remaining activity at 5 µM: 100%
EIF2AK2
  remaining activity at 5 µM: 90%
PLK4
  remaining activity at 5 µM: 90%
WNK1
  remaining activity at 5 µM: 97%
